PubChem BioAssay AID1963971 (Molecular Pharmacology Branch, DTP, NCI, 2024)

Test system: 953936-095-R-J2-PDC spheroids with HUVEC/MSC, viability
Experiment: Anticancer human tumor 953936-095-R-J2-PDC patient-derived cervical squamous cell carcinoma cell line growth inhibition [PI3K]
Details: for IC50: curve of first compound; for viability, T/C: stronger effect = lower value; active = viability on the fitted dose curve at most 10% of control; inactive = the rest
Outline: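 Multi-cell spheroids combine tumor cells with HUVEC and human MSCs, treated with targeted agents alone or with inavolisib, alpelisib, duvelisib or copanlisib. Concentrations fall in half-log steps from at or near clinical Cmax, or from 10 microM where Cmax is unknown; viability read-out.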
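Note: spheroids exposed to compounds for seven days before read-out.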

CCCS(=O)(=O)Nc1ccc(F)c(C(=O)c2c[nH]c3ncc(-c4ccc(Cl)cc4)cc23)c1F + CC(Nc1ncnc2nc[nH]c12)c1cc2cccc(Cl)c2c(=O)n1-c1ccccc1
5.28 µM: IC50 (second compound 1 µM)
active: viability, T/C (second compound 0.0316 µM, first compound 10 µM) 0.75% | viability, T/C (second compound 0.1 µM, first compound 10 µM) 1.22% | viability, T/C (second compound 0.316 µM, first compound 10 µM) 0.93% | viability, T/C (second compound 1 µM, first compound 10 µM) 1.11% | viability, T/C (second compound 3.16 µM, first compound 10 µM) 1.48% | viability, T/C (second compound 10 µM, first compound 10 µM) 1.27%
inactive: viability, T/C (second compound 0.0316 µM, first compound 0.0316 µM) 91.3% | viability, T/C (second compound 0.0316 µM, first compound 0.1 µM) 98.6% | viability, T/C (second compound 0.0316 µM, first compound 0.316 µM) 108% | viability, T/C (second compound 0.0316 µM, first compound 1 µM) 113% | viability, T/C (second compound 0.0316 µM, first compound 3.16 µM) 103% | viability, T/C (second compound 0.1 µM, first compound 0.0316 µM) 102% | viability, T/C (second compound 0.1 µM, first compound 0.1 µM) 101% | viability, T/C (second compound 0.1 µM, first compound 0.316 µM) 99.2% | viability, T/C (second compound 0.1 µM, first compound 1 µM) 104% | viability, T/C (second compound 0.1 µM, first compound 3.16 µM) 104% | viability, T/C (second compound 0.316 µM, first compound 0.0316 µM) 101% | viability, T/C (second compound 0.316 µM, first compound 0.1 µM) 91.6% | viability, T/C (second compound 0.316 µM, first compound 0.316 µM) 97% | viability, T/C (second compound 0.316 µM, first compound 1 µM) 102% | viability, T/C (second compound 0.316 µM, first compound 3.16 µM) 97.2% | viability, T/C (second compound 1 µM, first compound 0.0316 µM) 98.9% | viability, T/C (second compound 1 µM, first compound 0.1 µM) 85.1% | viability, T/C (second compound 1 µM, first compound 0.316 µM) 96.5% | viability, T/C (second compound 1 µM, first compound 1 µM) 98.2% | viability, T/C (second compound 1 µM, first compound 3.16 µM) 89.3% | viability, T/C (second compound 3.16 µM, first compound 0.0316 µM) 76.1% | viability, T/C (second compound 3.16 µM, first compound 0.1 µM) 74.6% | viability, T/C (second compound 3.16 µM, first compound 0.316 µM) 78% | viability, T/C (second compound 3.16 µM, first compound 1 µM) 101% | viability, T/C (second compound 3.16 µM, first compound 3.16 µM) 86.9% | viability, T/C (second compound 10 µM, first compound 0.0316 µM) 59.5% | viability, T/C (second compound 10 µM, first compound 0.1 µM) 63.5% | viability, T/C (second compound 10 µM, first compound 0.316 µM) 63% | viability, T/C (second compound 10 µM, first compound 1 µM) 70.1% | viability, T/C (second compound 10 µM, first compound 3.16 µM) 63.6%
5.73 µM: IC50 (second compound 0.1 µM)
5.74 µM: IC50 (second compound 0.0316 µM)
5.56 µM: IC50 (second compound 0.316 µM)
4.07 µM: IC50 (second compound 10 µM)
5.05 µM: IC50 (second compound 3.16 µM)
